Data taken from PMC9561113, “[2]-Ladderanes as isosteres for meta-substituted aromatic rings and rigidified cyclohexanes” (Nature Communications, 2022).
Converted amounts (≈) assume the structure as drawn.

Columns and labels:
[1] = Log P (Pion SiriusT3 instrument); assay type: physicochemical
Protocol: (§1) v/v heat deactivated FBS and 1% v/v penicillin-streptomycin (all from Gibco) and grown for 4 days at 37 °C in an atmosphere of 5% CO 2 and 95% relative humidity. Stock solutions of the compounds were prepared in dimethyl sulfoxide (DMSO) (10 mM), and each compound was dosed in triplicate at a final concentration of 10 μM in Hanks’ balanced salt solution (HBSS) at pH 7.4 containing 10 mM 4-(2-hydroxyethyl)-1-piperazineethanesulfonic acid (HEPES) and 0.02% w/v bovine serum albumin (BSA). A solution without the compounds and containing 5% BSA was added to the acceptor. Bafilomycin (100 nM) was added to both compartments. Cells were incubated with the compounds for 2 h at 37 °C, and flux was measured in the apical-to-basolateral direction. Aliquots from the apical, basal and compound dilution plate were sampled and diluted in 90% Methanol 10% Water with 0.1% Formic acid and 0.4 μ M glyburide as an analytical standard to precipitate the protein. The solutions as well as the calibration solutions were centrifuged for 30 min at 3000 rpm for protein precipitation. Drug concentrations in the donor and acceptor compartments were measured by liquid chromatography–mass spectrometry (LC-MS/MS).
The Log P was measured using a Pion SiriusT3 instrument.
To determine the stability of the bicyclo[2.2.0] system, the following experiments were performed:
Aqueous stability at two different pH:
SI-48 was first saponified to avoid the possibility of acid- or base-mediated hydrolysis:
Two solutions of pH = 2 and pH = 10 were prepared with 1M solutions of HCl and NaOH. Then, SI-49 was stirred in two separate solutions (1 mL of each of the aqueous solution and 0.80 mL of MeCN for each).
LC/MS for both durations. […]

[2] = High throughput equilibrium solubility (miniaturized shake flask); assay type: physicochemical; conditions: phosphate buffer, aqueous buffer, thermodynamic from solid; pH 6.8 phosphate media, shaken 16 hours
Protocol: High Throughput Equilibriu m Solubility:
The following procedure was adapted from the literature.15 Equilibrium solubility was determined using a miniaturized shake flask approach as described in Zhou et al. Aliquots of 10 mM DMSO compound solution were dispensed in triplicate (2.5 µL/sample) in 96-well polypropylene plates using a Labcyte Echo 525 acoustic dispenser. The DMSO was removed using a GeneVac HT4X evaporator for 15 minutes, 35 °C and full vacuum. Media (pH 6.8 Di-Sodium Hydrogen Phosphate/Potassium Hydrogen Phosphate) was added to each well to achieve a target concentration of 1 mM. The plate was sealed and shaken for 16 hours, then centrifuged at 1000g for phase separation. An aliquot of supernatant was transferred to a new plate, centrifuged a second time at 100g, and then the final supernatant was further diluted for subsequent analysis. Quantification of solubility was performed using a Sound Analytics LS1 and Sciex 6500+ MS/MS and an 8-point calibration curve. […]

[3] = Microsomal clearance (rat liver microsomal intrinsic clearance); assay type: in vitro ADME; conditions: rat liver microsomes, 37 °C, NADPH, 0-30 minutes
Text: The metabolic and physicochemical properties of the [2]-ladderanes compared to aryl/cyclohexyl matched pairs were also studied (compare 35 with 36/37 and 38 with 39/40) (Fig. 5). These structures were chosen because they bear functional groups that are common in drug discovery, yet unlikely to pose any inherent risks. In addition, solubility, permeability, rat liver microsomal intrinsic clearance, and LogP were selected to be evaluated as these are common parameters modulated in drug discovery programs to improve the pharmacokinetic/pharmacodynamic and safety profiles of potential drug candidates.
The following procedure was adapted from the literature. 14 The experiment was performed in 96-well plate format with shaking incubation at 37 °C and 750 rpm. The compounds in 10 mM DMSO were diluted 1:1000 in 100 mM potassium phosphate (Kpi) buffer to 10 µM. 30 µL of the compound solution was added to 120 µL of pretreated microsomal protein for 150 µL enzyme-substrate mixture. Reactions were initiated by addition of 150 µL of cofactor solution (2 mM NADPH, 4 mM MgCl2 in 100 mM KPi). At specific reaction time points (0, 5, 15 and 30 minutes), reaction aliquots (25 µL) were removed and terminated by addition to acetonitrile (150 µL) containing mass spectrometry internal standard (0.4 µM glyburide). The samples were then centrifuged at 500g, and the supernatants analyzed by LC-MS/MS for quantitation of remaining target compound. The percentage of target compound remaining, relative to 0 minutes, was used to estimate in vitro elimination-rate constant (kmic). […]

[4] = Permeability (MDCK), apparent permeability apical-to-basolateral; assay type: in vitro ADME; conditions: dog, with bafilomycin 100 nM in both compartments, MDCK-KO cells, pH 7.4, 2 h, read-out: Papp A-Bx10^-6
Protocol: The following procedure was adapted from the literature.16 To determine the apparent permeability (Papp), MDCK knockout (MDCK-KO) cells were seeded on Transwell 96 -well plate inserts (Corning, Tewksbury, MA,) at a density of 1.5 × 10^5 cells/cm2 in high glucose DMEM with GlutaMAX containing 10% […]
as §1, with “(LC-MS/MS). […]” for “(LC-MS/MS).”

| Structure (SMILES) | logP [1] | solubility at 16 h [2] [µM] | Rat Clint [3] [mL/min] | Papp at 2 h, 10 μM [4] [×10⁻⁶ cm/s] |
| --- | --- | --- | --- | --- |
| O=C(c1cccc(CO)c1)N1CCCCC1 [compound 36] | 0.41 | > 200 | < 10 | 32 |
| O=C(O)[C@@H]1C[C@H]2C[C@H](C(=O)N3CCCCC3)[C@H]21 [compound 38] | 0.98 | 180 (≈ 42.7 µg/mL) | < 10 | 5 |
| O=C(O)c1cccc(C(=O)N2CCCCC2)c1 [compound 39] | 1.15 | > 200 | < 10 | 4 |

Further lines, results first:

| logP [1] | solubility at 16 h [2] [µM] | Rat Clint [3] [mL/min] | Papp at 2 h, 10 μM [4] [×10⁻⁶ cm/s] | Structure (SMILES) |
| --- | --- | --- | --- | --- |
| 0.74 | > 200 | 15 | 29 | O=C(C1CC2CC(CO)C21)N1CCCCC1 (stereo not drawn) [compound 35] |
| 1.45 | > 200 | 21 | 28 | O=C(C1CCCC(CO)C1)N1CCCCC1 (stereo not drawn) [compound 37] |
| 0.95 | 200 (≈ 47.9 µg/mL) | < 10 | 4 | O=C(O)C1CCCC(C(=O)N2CCCCC2)C1 (stereo not drawn) [compound 40] |
